# Legend:
# Assay in all cases: selective drug sensitivity score (sDSS, relative to normal bone marrow) (sDSS (score)); higher = more potent and effective on the cell line relative to normal bone marrow cells
# Conditions in all cases: 72 h
# NALL-1 = system: NALL-1
# MHH-CALL-4 = system: MHH-CALL-4
# CCRF-HSB2 = system: CCRF-HSB2
# KASUMI-9 = system: KASUMI-9
# P12-ICHIKAWA = system: P12-ICHIKAWA
# P30-OHKUBO = system: P30-OHKUBO
# MOLT-16 = system: MOLT-16
# JURKAT = system: JURKAT
# MHH-CALL-2 = system: MHH-CALL-2
# COG-LL-332h = system: COG-LL-332h
# 380 = system: 380
# ALL-PO = system: ALL-PO
# PF-382 = system: PF-382
# SUP-B15 = system: SUP-B15
# NALM-16 = system: NALM-16
# KOPN-8 = system: KOPN-8
# SEM cells = system: SEM cells
# COG-LL-319h = system: COG-LL-319h
# COG-LL-355h = system: COG-LL-355h
# 697 = system: 697
# 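Note: ALL cell lines in 384-well plates, five doses spanning 10,000-fold, each plate scaled between vehicle and 100 µmol/L benzalkonium chloride controls, sDSS an adapted area-under-curve metric.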
SMILES,selective drug sensitivity score (NALL-1),selective drug sensitivity score (MHH-CALL-4),selective drug sensitivity score (CCRF-HSB2),selective drug sensitivity score (KASUMI-9),selective drug sensitivity score (P12-ICHIKAWA),selective drug sensitivity score (P30-OHKUBO),selective drug sensitivity score (MOLT-16),selective drug sensitivity score (JURKAT),selective drug sensitivity score (MHH-CALL-2),selective drug sensitivity score (COG-LL-332h),selective drug sensitivity score 380,selective drug sensitivity score (ALL-PO),selective drug sensitivity score (PF-382),selective drug sensitivity score (SUP-B15),selective drug sensitivity score (NALM-16),selective drug sensitivity score (KOPN-8),selective drug sensitivity score (SEM cells),selective drug sensitivity score (COG-LL-319h),selective drug sensitivity score (COG-LL-355h),selective drug sensitivity score 697
CC(C)Oc1ccc(C(=O)N[C@H](CNC(=O)CN(C)C)Cc2ccc(-c3cn4cccc([C@H](C)O)c4n3)cc2)cc1Cl (top concentration 10000 nM),9.88,0.78,11,10.3,7.28,12.8,20.1,13.6,8.58,16.5,10.7,6.88,6.68,14.8,1.68,14.2,8.88,14.3,-2.62,19.9
CCn1c(-c2nonc2N)nc2cnc(Oc3cccc(NC(=O)c4ccc(OCCN5CCOCC5)cc4)c3)cc21 (top concentration 10000 nM),8.46,10.4,13.6,11.6,17.1,10.9,12.1,3.76,8.36,11,7.46,-2.14,1.66,19.3,-5.44,11.3,9.36,17.5,-2.34,18.3
CC(C)(C#N)c1cc(Cn2cncn2)cc(C(C)(C)C#N)c1 [Anastrozole] (top concentration 10000 nM),0,0,0,0,0,0,0,0,0,0,0,0,0,0,0,0,0,0,0,0
Cc1sc2c(c1C)C(c1ccc(Cl)cc1)=N[C@@H](CC(=O)Nc1ccc(O)cc1)c1nnc(C)n1-2 [Birabresib] (top concentration 10000 nM),-3.58,6.02,-0.98,13.1,5.22,7.22,7.92,-1.98,7.02,-4.28,-9.68,5.22,3.42,3.42,1.52,11.6,11.6,13.5,2.42,10.6
Nc1ccn([C@@H]2O[C@H](CO)[C@@H](O)[C@@H]2O)c(=O)n1 [Cytarabine] (top concentration 10000 nM),10.6,5.4,28.7,22.7,24.5,26.2,22.5,17.9,19.6,25.5,22.2,8.6,19.1,27.7,8.8,20.9,15.9,18.8,4.9,27.7
COc1cccc2c1C(=O)c1c(O)c3c(c(O)c1C2=O)C[C@@](O)(C(C)=O)C[C@@H]3O[C@H]1C[C@H](N)[C@H](O)[C@H](C)O1 [Daunorubicin] (top concentration 1000 nM),-4.04,7.46,12.5,7.06,6.96,6.46,13.5,2.96,6.16,12.1,13.7,-0.34,1.26,11.9,-2.14,6.56,6.06,16.4,5.06,9.06
Nc1ncn([C@H]2C[C@H](O)[C@@H](CO)O2)c(=O)n1 [Decitabine] (top concentration 10000 nM),-5.96,0.54,1.14,-0.16,1.14,4.64,5.94,4.04,1.04,4.34,9.14,4.54,-1.16,16.5,-2.96,10.2,1.74,10.7,-0.96,17.5
CCN(CC)C(=S)SSC(=S)N(CC)CC [Disulfiram(+CuCl2)] (top concentration 50000 nM),16.1,3.38,-2.12,2.28,-2.12,0.78,13.9,-2.12,8.58,-0.52,1.58,-2.12,-0.02,10.7,-2.12,15.8,-2.12,18.7,1.48,-1.02
Nc1nc(F)nc2c1ncn2[C@@H]1O[C@H](CO)[C@@H](O)[C@@H]1O [Fludarabine] (top concentration 10000 nM),2.3,8.3,1.5,6,-5.5,7.7,2.6,-5.5,8,0.6,6.9,1.6,-6.6,9.4,-6,8.4,4,8.4,5.1,7.3
Nc1nc(OCc2cc(Br)cs2)c2[nH]cnc2n1 [Lomeguatrib] (top concentration 10000 nM),0,0,0,0,0,0,0,0,0,0,0,0.5,0,0,0,0,0,0,1,0.4
Cc1cc(OCc2nnc(SC3CCCC3)n2-c2cccnc2)ccc1-c1ccc(S(C)(=O)=O)cc1 [NMS-873] (top concentration 10000 nM),3.26,6.96,10.5,1.26,19.9,4.66,17.6,26.5,6.76,5.86,-4.24,4.36,11.8,10.6,2.86,4.06,5.06,10.3,4.56,14.1
COC(=O)c1ccc2c(c1)NC(=O)/C2=C(\Nc1ccc(N(C)C(=O)CN2CCN(C)CC2)cc1)c1ccccc1 [Nintedanib] (top concentration 10000 nM),-2.76,-1.66,28.6,-1.26,-2.96,-1.46,-2.26,-4.86,1.04,4.44,-4.56,11.1,5.04,9.44,-1.76,-5.26,16,8.74,-0.16,0.84
O=C(c1cc(Cc2n[nH]c(=O)c3ccccc23)ccc1F)N1CCN(C(=O)C2CC2)CC1 [Olaparib] (top concentration 10000 nM),1.28,8.68,3.98,4.98,-0.82,2.98,9.08,1.58,8.88,4.98,26.8,-0.12,-0.52,13.1,-3.42,9.68,5.18,11.7,3.38,6.78
O=C(O)C(=O)O.[NH-][C@@H]1CCCC[C@H]1[NH-].[Pt+2] [Oxaliplatin] (top concentration 100000 nM),2.92,12.1,15,13.6,8.32,14.1,17.1,5.52,13.9,14.9,10.6,-0.78,-0.28,16.6,-1.48,16.9,8.52,15.6,4.92,16
CS(=O)(=O)N1CCN(Cc2cc3nc(-c4cccc5[nH]ncc45)nc(N4CCOCC4)c3s2)CC1 [Pictilisib] (top concentration 10000 nM),-0.64,9.26,4.56,10.1,1.16,13,4.16,0.36,12.3,0.46,16.4,14.6,6.26,0.16,4.66,14.8,9.66,5.56,12,7.36
CCOC(=O)C1=CCCC[C@H]1S(=O)(=O)Nc1ccc(F)cc1Cl [Resatorvid] (top concentration 10000 nM),0,0,0,0,0,0,0,0,0,0,0,0,0,0,0,0.2,0,0,0,0
CO[C@H]1C[C@@H]2CC[C@@H](C)[C@@](O)(O2)C(=O)C(=O)N2CCCC[C@H]2C(=O)O[C@H]([C@H](C)C[C@@H]2CC[C@@H](OP(C)(C)=O)[C@H](OC)C2)CC(=O)[C@H](C)/C=C(\C)[C@@H](O)[C@@H](OC)C(=O)[C@H](C)C[C@H](C)/C=C/C=C/C=C/1C [Ridaforolimus] (top concentration 100 nM),-4.44,-4.44,7.46,6.96,-0.94,4.36,10.6,0.26,-2.24,7.36,24.5,2.66,5.86,8.96,-0.04,22.2,5.66,4.76,-2.14,12.5
CCc1c2c(nc3ccc(O)cc13)-c1cc3c(c(=O)n1C2)COC(=O)[C@]3(O)CC [SN-38] (top concentration 10000 nM),24.4,19.7,28,23.5,26.5,24.6,28.2,22.7,25.2,27.6,27,19.5,24.8,26.9,13.4,28,25.4,26.7,14.7,22.7
